Measured values taken from patent publication US20260209249A1, “NOVEL TRICYCLIC COMPOUND AS KRAS G12D INHIBITOR, AND USE THEREOF” (SK Biopharmaceuticals Co., priority 2022, published 2026).

Assays:
[1] = target: T1, GDP-KRAS G12D mutant protein (Homo sapiens, UniProt P01116, G12D); assay: Differential scanning fluorimetry (DSF) binding affinity to GDP-KRAS G12D mutant protein; conditions: DSF thermal shift, 10 μM compound, 4 μg KRAS protein
T1 construct: purchased Daegu Gyeongbuk Medical Innovation Foundation (DGMIF), made to order
Description: (§1) Test Example 1: Measurement of Binding Affinity to KRAS G12D Mutant Protein The binding affinities of the compounds according to one embodiment of the present application to the KRAS G12D mutant protein were evaluated using differential scanning fluorimetry (DSF). Differential scanning fluorimetry (DSF) is a method used to study the stability of a protein upon binding to a compound. The experiment can be performed using a real-time PCR (RT-PCR) instrument, and is commonly employed as a screening technique for small-molecule compounds targeting specific proteins. As the temperature increases, folded proteins begin to unfold, during which a hydrophobic dye such as SYPRO Orange binds to the exposed hydrophobic regions of the protein, resulting in a measurable increase in fluorescence intensity (maximum absorption at 470 nm and maximum emission at 570 nm). Protein-compound binding is determined by the difference in the melting temperature (Tm) of the protein in the presence of the compound compared to the Tm in the absence of the compound, expressed as ΔTm. The binding affinity to the KRAS G12D mutant protein was measured using the Protein Thermal Shift Dye kit (#4461146, Applied Biosystems). The GDP-KRAS G12D mutant protein and GppNHp-KRAS G12D mutant protein used in the experiment were recombinant proteins synthesized by the Daegu Gyeongbuk Medical Innovation Foundation (DGMIF) upon request. The analysis of binding between the compound and the KRAS G12D mutant protein was performed according to the following reaction recipe: each test sample contained 4 μg of KRAS protein, 10 μM of the compound, and 2×SYPRO Orange dye. For the GDP-KRAS G12D protein samples, the buffer provided with the Protein Thermal Shift Dye kit was used, while for the GppNHp-KRAS G12D protein samples, 50 mM HEPES (pH 7.5) buffer was used. For the protein-compound binding reaction, the compound was added to the KRAS G12D mutant protein and reacted at room temperature for 30 minutes, followed by the addition of 2×SYPRO Orange dye. The temperature was increased to 25° C.-99° C. (0.05° C./s) using QuantStudiol RT-PCR instrument (Applied Biosystems), and fluorescence was measured using a ROX reporter with filters of 580±10 nm (excitation)/623±14 nm (emission). The measurements obtained at a compound concentration of 10 μM were analyzed using the Protein Thermal Shift Software program (version v1.4, Thermo Fisher Scientific), and the ΔTm (° C.) values, which indicate the binding affinity of the compound to the KRAS G12D mutant protein, were calculated. The DSF measurement results for the compounds according to one embodiment of the present application with respect to the KRAS G12D mutant protein are shown in Table 2.

[2] = target: T2, GppNHp-KRAS G12D mutant protein (Homo sapiens, UniProt P01116, G12D); assay: Differential scanning fluorimetry (DSF) binding affinity to GppNHp-KRAS G12D mutant protein; conditions: DSF thermal shift, 10 μM compound, 4 μg KRAS protein, 50 mM HEPES (pH 7.5)
T2 construct: purchased Daegu Gyeongbuk Medical Innovation Foundation (DGMIF), made to order
Description: as §1

SMILES	GDP-KRAS G12D (ΔTmD, ° C.) [1] [°C]	GppNHp-KRAS G12D (ΔTmD, ° C.) [2] [°C]
CCc1c(F)ccc2cc(O)cc(-c3cc4nc(OC[C@@]56CCCN5C[C@H](F)C6)nc(NCC5(N(C)C)CCC5)c4n4ccnc34)c12 [Example 4, 4-(1-(((1-(dimethylamino)cyclobutyl)methyl)amino)-3-(((2R,7aS)-2-fluorotetrahydro-1H-pyrrolizin-7a(5H)-yl)methoxy)imidazo[1′,2′:1,6]pyrido[3,2-d]pyrimidin-6-yl)-5-ethyl-6-fluoronaphthalen-2-ol]	1.90	0.57
Nc1c(F)c(F)c(F)c(-c2cc3nc(OC[C@@]45CCCN4C[C@H](F)C5)nc(N4C[C@H]5CC[C@@H](C4)N5)c3n3ccnc23)c1F [Example 13, 3-(1-((1R,5S)-3,8-diazabicyclo[3.2.1]octan-3-yl)-3-(((2R,7aS)-2-fluorotetrahydro-1H-pyrrolizin-7a(51H)-yl)methoxy)imidazo[1′,2′:1,6]pyrido[3,2-d]pyrimidin-6-yl)-2,4,5,6-tetrafluoroaniline]	0.28	−0.61
Nc1nc2c(-c3cc4nc(OC[C@@]56CCCN5C[C@H](F)C6)nc(N5[C@@H]6CC[C@H]5CNC6)c4n4ccnc34)ccc(F)c2s1 [Example 15, 4-(1-((1R,5S)-3,8-diazabicyclo[3.2.1]octan-8-yl)-3-(((2R,7aS)-2-fluorotetrahydro-1H-pyrrolizin-7a(5H)-yl)methoxy)imidazo[1′,2′:1,6]pyrido[3,2-d]pyrimidin-6-yl)-7-fluorobenzo[d]thiazol-2-amine]	−0.01	0.28
Cc1cc2[nH]ncc2c(-c2cc3nc(OC[C@@]45CCCN4C[C@H](F)C5)nc(N4[C@@H]5CC[C@H]4CNC5)c3n3ccnc23)c1C(F)(F)F [Example 18, 1-((1 R,5S)-3,8-diazabicyclo[3.2.1]octan-8-yl)-3-(((2R,7aS)-2-fluorotetrahydro-1H-pyrrolizin-7a(5H)-yl)methoxy)-6-(6-methyl-5-(trifluoromethyl)-1H-indazol-4-yl)imidazo[1′,2′:1,6]pyrido[3,2-d]pyrimidine]	2.35	1.01
C#Cc1c(F)ccc2cc(O)cc(-c3cc4nc(OCC5(CN6CCC[C@H](F)C6)CC5)nc(N5[C@@H]6CC[C@H]5CNC6)c4n4ccnc34)c12 [Example 19, 4-(1-((1R,5S)-3,8-diazabicyclo[3.2.1]octan-8-yl)-3-((1-(((S)-3-fluoropiperidin-1-yl)methyl)cyclopropyl)methoxy)imidazo[1′,2′:1,6]pyrido[3,2-d]pyrimidin-6-yl)-5-ethynyl-6-fluoronaphthalen-2-ol]	7.68	3.82
Cc1cc(N)nc(-c2cc3nc(OC[C@@]45CCCN4C[C@H](F)C5)nc(N4[C@@H]5CC[C@H]4CNC5)c3n3ccnc23)c1C(F)(F)F [Example 20, 6-(1-((1R,5S)-3,8-diazabicyclo[3.2.1]octan-8-yl)-3-(((2R,7aS)-2-fluorotetrahydro-1H-pyrrolizin-7a(5H)-yl)methoxy)imidazo[1′,2′:1,6]pyrido[3,2-d]pyrimidin-6-yl)-4-methyl-5-(trifluoromethyl)pyridin-2-amine]	−0.17	0.27
C#Cc1c(F)ccc2cccc(-c3cc4nc(OC[C@@]56CCCN5C/C(=C\F)C6)nc(N5[C@@H]6CC[C@H]5CNC6)c4n4ccnc34)c12 [Example 22, 1-((1R,5S)-3,8-diazabicyclo[3.2.1]octan-8-yl)-6-(8-ethynyl-7-fluoronaphthalen-1-yl)-3-(((S,Z)-2-(fluoromethylene)tetrahydro-1H-pyrrolizin-7a(5H)-yl)methoxy)imidazo[1′,2′:1,6]pyrido[3,2-d]pyrimidine]	4.28	1.02
C#Cc1c(F)ccc2cc(N)cc(-c3cc4nc(OC[C@@]56CCCN5C[C@H](F)C6)nc(N5C[C@H]6CC[C@@H](C5)N6)c4n4ccnc34)c12 [Example 24, 4-(1-((1R,5S)-3,8-diazabicyclo[3.2.1]octan-3-yl)-3-(((2R,7aS)-2-fluorotetrahydro-1H-pyrrolizin-7a(5H)-yl)methoxy)imidazo[1′,2′:1,6]pyrido[3,2-d]pyrimidin-6-yl)-5-ethynyl-6-fluoronaphthalen-2-amine]	5.48	2.07
Nc1nc2c(-c3cc4nc(OC[C@@]56CCCN5C[C@H](F)C6)nc(N5C[C@H]6CC[C@@H](C5)N6)c4n4ccnc34)ccc(F)c2s1 [Example 25, 4-(1-((1R,5S)-3,8-diazabicyclo[3.2.1]octan-3-yl)-3-(((2R,7aS)-2-fluorotetrahydro-1H-pyrrolizin-7a(5H)-yl)methoxy)imidazo[1′,2′:1,6]pyrido[3,2-d]pyrimidin-6-yl)-7-fluorobenzo[d]thiazol-2-amine]	0.27	−0.17
Cc1cc2[nH]ncc2c(-c2cc3nc(OC[C@@]45CCCN4C[C@H](F)C5)nc(N4C[C@H]5CC[C@@H](C4)N5)c3n3ccnc23)c1C(F)(F)F [Example 26, 1-((1 R,5S)-3,8-diazabicyclo[3.2.1]octan-3-yl)-3-(((2R,7aS)-2-fluorotetrahydro-1H-pyrrolizin-7a(5H)-yl)methoxy)-6-(6-methyl-5-(trifluoromethyl)-1H-indazol-4-yl)imidazo[1′,2′:1,6]pyrido[3,2-d]pyrimidine]	4.12	1.01
C#Cc1c(F)ccc2cccc(-c3cc4nc(OC[C@@]56CCCN5C/C(=C\F)C6)nc(N5C[C@H]6CC[C@@H](C5)N6)c4n4ccnc34)c12 [Example 27, 1-((1 R,5S)-3,8-diazabicyclo[3.2.1]octan-3-yl)-6-(8-ethynyl-7-fluoronaphthalen-1-yl)-3-(((S,Z)-2-(fluoromethylene)tetrahydro-1H-pyrrolizin-7a(5H)-yl)methoxy)imidazo[1′,2′:1,6]pyrido[3,2-d]pyrimidine]	4.27	0.71
C#Cc1c(F)ccc2cccc(-c3cc4nc(OC[C@@]56CCCN5C[C@H](F)C6)nc(N5C[C@H]6CC[C@@H](C5)N6)c4n4ccnc34)c12 [Example 28, 1-((1R,5S)-3,8-diazabicyclo[3.2.1]octan-3-yl)-6-(8-ethynyl-7-fluoronaphthalen-1-yl)-3-(((2R,7aS)-2-fluorotetrahydro-1H-pyrrolizin-7a(5H)-yl)methoxy)imidazo[1′,2′:1,6]pyrido[3,2-d]pyrimidine]	3.53	0.27
C#Cc1c(F)ccc2cc(O)cc(-c3cc4nc(OCC5(CN6CC[C@@H](F)C6)CC5)nc(N5C[C@H]6CC[C@@H](C5)N6)c4n4ccnc34)c12 [Example 30, 4-(1-((1R,5S)-3,8-diazabicyclo[3.2.1]octan-3-yl)-3-((1-(((R)-3-fluoropyrrolidin-1-yl)methyl)cyclopropyl)methoxy)imidazo[1′,2′:1,6]pyrido[3,2-d]pyrimidin-6-yl)-5-ethynyl-6-fluoronaphthalen-2-ol]	8.12	2.81
C#Cc1c(F)ccc2cc(O)cc(-c3cc4nc(OCC5(CN6CCC[C@H](F)C6)CC5)nc(N5C[C@H]6CC[C@@H](C5)N6)c4n4ccnc34)c12 [Example 31, 4-(1-((1R,5S)-3,8-diazabicyclo[3.2.1]octan-3-yl)-3-((1-(((S)-3-fluoropiperidin-1-yl)methyl)cyclopropyl)methoxy)imidazo[1′,2′:1,6]pyrido[3,2-d]pyrimidin-6-yl)-5-ethynyl-6-fluoronaphthalen-2-ol]	7.82	2.22
C#Cc1c(F)ccc2cc(O)cc(-c3cc4nc(OC[C@]56CC(=C)CN5C[C@@H](F)C6)nc(N5C[C@H]6CC[C@@H](C5)N6)c4n4ccnc34)c12 [Example 32, 4-(1-((1R,5S)-3,8-diazabicyclo[3.2.1]octan-3-yl)-3-(((2S,7aR)-2-fluoro-6-methylenetetrahydro-1H-pyrrolizin-7a(5H)-yl)methoxy)imidazo[1′,2′:1,6]pyrido[3,2-d]pyrimidin-6-yl)-5-ethynyl-6-fluoronaphthalen-2-ol]	9.05	4.04
